Drawing on the supplement of paper PMC10307832, this text covers relative viability for one cell line.

Holding throughout (test): relative viability (nuclei count vs DMSO), 5 days (fraction); higher = more cells survive
Compound in assay [1]: COc1cc(-c2nn([C@H]3CC[C@H](N4CCN(C(C)=O)CC4)CC3)c3ncnc(N)c23)ccc1NC(=O)c1cc2ccccc2n1C + CCNC(=O)c1noc(-c2cc(C(C)C)c(O)cc2O)c1-c1ccc(CN2CCOCC2)cc1 [Luminespib] (partner 0.01 µM)
In a few lines: (§1)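 Each reported value is a median over duplicate plates. It expresses relative viability: treated-well nuclei count divided by vehicle-well nuclei count. Lung cancer cell lines in 1536-well plates were dosed by pin tool a day after seeding, alone with one drug or with a fixed anchor-drug dose plus five library-drug doses (not always all listed) in √10 steps, and nuclei were counted after 5 days.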

Compound in assay [2]: COc1cc(-c2nn([C@H]3CC[C@H](N4CCN(C(C)=O)CC4)CC3)c3ncnc(N)c23)ccc1NC(=O)c1cc2ccccc2n1C + CC(=O)c1c(C)c2cnc(Nc3ccc(N4CCNCC4)cn3)nc2n(C2CCCC2)c1=O [Palbociclib] (partner 0.5 µM)
The essentials: as §1

Compound in the assay “Midostaurin + Trametinib”: CO[C@@H]1[C@H](N(C)C(=O)c2ccccc2)C[C@H]2O[C@]1(C)n1c3ccccc3c3c4c(c5c6ccccc6n2c5c31)C(=O)NC4 [Midostaurin] + CC(=O)Nc1cccc(-n2c(=O)n(C3CC3)c(=O)c3c(Nc4ccc(I)cc4F)n(C)c(=O)c(C)c32)c1 [Trametinib] (partner 0.02 µM)
In a few lines: as §1

Compound in assay [3]: COc1cc(-c2nn([C@H]3CC[C@H](N4CCN(C(C)=O)CC4)CC3)c3ncnc(N)c23)ccc1NC(=O)c1cc2ccccc2n1C + N=C(N)NC(=N)NCCc1ccccc1 [Phenformin] (partner 250 µM)
The essentials: as §1

Compound in assay [4]: COc1cc(-c2nn([C@H]3CC[C@H](N4CCN(C(C)=O)CC4)CC3)c3ncnc(N)c23)ccc1NC(=O)c1cc2ccccc2n1C + Nc1nc2[nH]cc(CCc3ccc(C(=O)N[C@@H](CCC(=O)O)C(=O)O)cc3)c2c(=O)[nH]1 [Pemetrexed] (partner 0.2 µM)
The essentials: as §1

In the case of UMC-11, the relative viability in assay [1] (first compound 0.0128 µM) amounted to 0.928; in assay [1] (first compound 0.04048 µM), 0.956; in assay [1] (first compound 0.128 µM), 0.922; in assay [1] (first compound 1.28 µM), 0.818; in assay [2] (first compound 0.0128 µM), 0.349; in assay [2] (first compound 0.04048 µM), 0.341. The relative viability in assay [2] (first compound 0.128 µM) came to 0.335; in assay [2] (first compound 1.28 µM) it was 0.341; with Midostaurin + Trametinib (first compound 0.01 µM), 0.698; with Midostaurin + Trametinib (first compound 0.03162 µM), 0.656; with Midostaurin + Trametinib (first compound 0.1 µM) it was 0.691; with Midostaurin + Trametinib (first compound 0.3162 µM) it was 0.562. Besides, the relative viability in assay [3] (first compound 0.0128 µM) was determined as 0.285; in assay [3] (first compound 0.04048 µM), 0.336; in assay [3] (first compound 0.128 µM), 0.311; in assay [3] (first compound 1.28 µM), 0.279; in assay [4] (first compound 0.0128 µM) it was 0.694; in assay [4] (first compound 0.04048 µM) it was 0.865. Further, the figures for the relative viability in assay [4] (first compound 0.128 µM) and in assay [4] (first compound 1.28 µM) were 0.809 and 0.576, respectively.
